Columns and labels:
[1] = system: Radical scavenging activity; experiment: Antioxidant activity assessed as DPPH free radical scavenging activity after 30 min; assay type: functional
[2] = system: Staphylococcus aureus; experiment: Antibacterial activity against Staphylococcus aureus NCTC 7447 at 1 mg/disk after 24 hr by paper disk diffusion method; assay type: functional

Molecule	IC50 [1]	diameter of the inhibition zone (DIZ) [2]	inhibition zone (IZ) [2]
O=C(/C=C/c1cccc2ccccc12)c1c(O)c2ccccc2oc1=O	2390 nM	8 mm	–
O=c1oc2ccccc2c2[nH]ncc12	–	14 mm	–
O=C(/C=C/c1ccc([N+](=O)[O-])cc1)c1c(O)c2ccccc2oc1=O	3210 nM	16 mm	–
O=C(/C=C/c1ccccc1)c1c(O)c2ccccc2oc1=O	2150 nM	10 mm	–
Cc1ccc(/C=C/C(=O)c2c(O)c3ccccc3oc2=O)cc1	2070 nM	13 mm	–
COc1ccc(/C=C/C(=O)c2c(O)c3ccccc3oc2=O)cc1	2810 nM	14 mm	–
O=C(/C=C/c1ccc(F)cc1)c1c(O)c2ccccc2oc1=O	2230 nM	13 mm	–
Cn1ncc2c(=O)oc3ccccc3c21	–	17 mm	–
O=C(/C=C/c1ccc(Br)cc1)c1c(O)c2ccccc2oc1=O	2250 nM	9 mm	–
COc1cc(/C=C/C(=O)c2c(O)c3ccccc3oc2=O)cc(OC)c1OC	2290 nM	11 mm	–
CN(C)c1ccc(/C=C/C(=O)c2c(O)c3ccccc3oc2=O)cc1	2390 nM	11 mm	–
O=c1oc2ccccc2c2c1cnn2-c1ccccc1	–	19 mm	–
GENTAMICIN	–	–	15 mm
